One block for each molecule: values may come before it.
Legend:
[1] = biological target: Interleukin-1 receptor-associated kinase 1 (Homo sapiens) (UniProt P51617); test: Inhibition of human recombinant IRAK1 at 500 nM related to control ULK1
[2] = biological target: T1, Mitogen-activated protein kinase kinase kinase kinase 2 (Homo sapiens) (UniProt Q12851); test: Inhibition of human recombinant GCK at 15 nM related to control ULK1
T1 sequence (whole entry): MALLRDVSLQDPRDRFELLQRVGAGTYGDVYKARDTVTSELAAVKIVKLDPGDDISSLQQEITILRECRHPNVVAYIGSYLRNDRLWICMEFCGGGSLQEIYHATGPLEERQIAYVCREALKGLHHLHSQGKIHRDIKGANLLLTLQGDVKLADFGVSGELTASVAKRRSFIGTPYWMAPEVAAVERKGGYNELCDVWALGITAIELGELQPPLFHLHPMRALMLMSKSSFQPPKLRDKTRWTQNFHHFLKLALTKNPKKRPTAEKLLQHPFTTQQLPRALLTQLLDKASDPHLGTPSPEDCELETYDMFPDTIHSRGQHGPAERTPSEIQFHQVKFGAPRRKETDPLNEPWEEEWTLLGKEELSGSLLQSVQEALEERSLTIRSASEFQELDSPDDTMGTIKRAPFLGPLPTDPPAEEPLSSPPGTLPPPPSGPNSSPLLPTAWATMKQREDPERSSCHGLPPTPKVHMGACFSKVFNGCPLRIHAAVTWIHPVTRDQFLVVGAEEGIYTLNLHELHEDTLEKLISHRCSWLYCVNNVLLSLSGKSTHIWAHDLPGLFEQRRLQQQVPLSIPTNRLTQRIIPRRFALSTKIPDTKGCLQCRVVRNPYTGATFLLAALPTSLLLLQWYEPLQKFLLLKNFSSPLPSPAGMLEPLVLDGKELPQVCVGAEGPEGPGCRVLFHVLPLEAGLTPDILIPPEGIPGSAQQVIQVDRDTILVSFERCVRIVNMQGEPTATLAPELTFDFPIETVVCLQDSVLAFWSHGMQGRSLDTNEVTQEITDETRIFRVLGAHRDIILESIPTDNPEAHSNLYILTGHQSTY

[3] = biological target: RAF proto-oncogene serine/threonine-protein kinase (Homo sapiens) (UniProt P04049); test: Inhibition of human recombinant RAF1 at 15 nM related to control ULK1
[4] = biological target: Glycogen synthase kinase-3 beta (Homo sapiens) (UniProt P49841); test: Inhibition of human recombinant GSK3B at 15 nM related to control ULK1
[5] = biological target: T2, cAMP-dependent protein kinase catalytic subunit PRKX (Homo sapiens) (UniProt P51817); test: Inhibition of human recombinant PRKX at 15 nM related to control ULK1
T2 sequence (whole entry): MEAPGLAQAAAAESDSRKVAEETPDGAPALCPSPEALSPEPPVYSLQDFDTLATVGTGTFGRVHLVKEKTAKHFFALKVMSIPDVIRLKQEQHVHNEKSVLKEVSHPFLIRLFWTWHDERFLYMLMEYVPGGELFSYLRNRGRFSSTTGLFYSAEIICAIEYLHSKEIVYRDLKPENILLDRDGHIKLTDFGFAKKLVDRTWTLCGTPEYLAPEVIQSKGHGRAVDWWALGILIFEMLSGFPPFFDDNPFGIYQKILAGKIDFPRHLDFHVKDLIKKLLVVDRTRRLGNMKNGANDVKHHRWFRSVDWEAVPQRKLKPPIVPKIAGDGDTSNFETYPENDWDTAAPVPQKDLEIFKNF

[6] = biological target: Serine/threonine-protein kinase Nek4 (Homo sapiens) (UniProt P51957); test: Inhibition of human recombinant NEK4 at 15 nM in presence of ATP by radiometric assay relative to control
[7] = biological target: T3, Serine/threonine-protein kinase Nek11 (Homo sapiens) (UniProt Q8NG66); test: Inhibition of human recombinant NEK11 at 40 nM in presence of ATP by radiometric assay relative to control
T3 sequence (whole entry): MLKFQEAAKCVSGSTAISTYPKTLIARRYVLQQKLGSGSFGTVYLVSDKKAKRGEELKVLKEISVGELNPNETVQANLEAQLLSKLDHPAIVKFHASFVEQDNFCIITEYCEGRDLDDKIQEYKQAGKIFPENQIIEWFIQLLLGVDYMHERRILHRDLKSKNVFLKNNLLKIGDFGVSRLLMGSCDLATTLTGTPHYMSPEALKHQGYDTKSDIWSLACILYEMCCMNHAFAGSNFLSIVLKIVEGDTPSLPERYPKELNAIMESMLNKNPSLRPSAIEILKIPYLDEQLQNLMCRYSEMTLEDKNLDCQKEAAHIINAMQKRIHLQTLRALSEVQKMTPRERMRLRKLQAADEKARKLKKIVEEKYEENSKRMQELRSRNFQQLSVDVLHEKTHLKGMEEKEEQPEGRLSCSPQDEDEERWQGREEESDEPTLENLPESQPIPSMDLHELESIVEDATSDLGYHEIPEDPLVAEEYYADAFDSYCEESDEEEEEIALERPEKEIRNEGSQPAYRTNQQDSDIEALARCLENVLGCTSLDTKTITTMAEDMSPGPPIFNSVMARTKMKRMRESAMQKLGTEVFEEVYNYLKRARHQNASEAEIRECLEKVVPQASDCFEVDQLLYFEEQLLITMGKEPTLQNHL

[8] = biological target: Cyclin-dependent kinase 12 (Homo sapiens) (UniProt Q9NYV4); test: Inhibition of human recombinant CRK7 at 40 nM in presence of ATP by radiometric assay relative to control
Cyclin-dependent kinase 12 (Homo sapiens), sequence (Q9NYV4 whole entry, looked up): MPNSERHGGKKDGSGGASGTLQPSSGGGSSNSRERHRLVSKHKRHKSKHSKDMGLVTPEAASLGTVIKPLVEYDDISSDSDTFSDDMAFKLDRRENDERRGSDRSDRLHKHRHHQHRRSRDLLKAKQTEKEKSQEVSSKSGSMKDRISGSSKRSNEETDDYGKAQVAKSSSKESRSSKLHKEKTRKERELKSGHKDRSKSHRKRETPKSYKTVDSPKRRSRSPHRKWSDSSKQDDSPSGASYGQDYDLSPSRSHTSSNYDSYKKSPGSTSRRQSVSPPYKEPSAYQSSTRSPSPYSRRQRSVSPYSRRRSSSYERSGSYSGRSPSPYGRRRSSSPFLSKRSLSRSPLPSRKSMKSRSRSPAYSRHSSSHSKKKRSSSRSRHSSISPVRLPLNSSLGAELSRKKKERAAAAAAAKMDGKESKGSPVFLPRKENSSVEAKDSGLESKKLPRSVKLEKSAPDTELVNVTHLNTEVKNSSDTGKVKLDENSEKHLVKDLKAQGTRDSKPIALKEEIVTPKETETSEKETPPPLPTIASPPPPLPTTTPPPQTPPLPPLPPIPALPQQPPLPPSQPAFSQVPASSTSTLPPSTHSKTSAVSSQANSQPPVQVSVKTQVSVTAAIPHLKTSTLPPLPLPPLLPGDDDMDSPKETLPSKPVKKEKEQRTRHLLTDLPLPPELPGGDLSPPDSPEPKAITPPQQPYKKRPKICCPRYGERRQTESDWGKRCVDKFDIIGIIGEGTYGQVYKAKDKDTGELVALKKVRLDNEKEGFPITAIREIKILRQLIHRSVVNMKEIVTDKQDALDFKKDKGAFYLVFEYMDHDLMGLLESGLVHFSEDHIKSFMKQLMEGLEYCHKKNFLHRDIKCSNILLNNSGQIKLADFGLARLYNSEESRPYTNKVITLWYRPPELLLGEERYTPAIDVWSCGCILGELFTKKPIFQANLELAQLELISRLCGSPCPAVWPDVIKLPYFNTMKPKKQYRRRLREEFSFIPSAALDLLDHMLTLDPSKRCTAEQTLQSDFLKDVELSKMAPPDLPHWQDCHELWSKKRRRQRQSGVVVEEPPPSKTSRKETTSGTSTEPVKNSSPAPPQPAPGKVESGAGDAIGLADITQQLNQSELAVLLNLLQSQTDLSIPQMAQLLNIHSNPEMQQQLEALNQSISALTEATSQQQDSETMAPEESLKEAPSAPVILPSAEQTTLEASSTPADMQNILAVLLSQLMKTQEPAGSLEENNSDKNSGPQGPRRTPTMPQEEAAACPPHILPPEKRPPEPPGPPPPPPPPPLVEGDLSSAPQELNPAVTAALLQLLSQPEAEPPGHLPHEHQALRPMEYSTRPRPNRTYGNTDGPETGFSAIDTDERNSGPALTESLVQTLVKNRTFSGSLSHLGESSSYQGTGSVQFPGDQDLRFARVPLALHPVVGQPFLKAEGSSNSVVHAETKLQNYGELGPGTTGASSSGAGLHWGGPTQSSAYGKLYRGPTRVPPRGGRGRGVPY

Glycogen synthase kinase-3 beta (Homo sapiens), sequence (P49841 whole entry, looked up): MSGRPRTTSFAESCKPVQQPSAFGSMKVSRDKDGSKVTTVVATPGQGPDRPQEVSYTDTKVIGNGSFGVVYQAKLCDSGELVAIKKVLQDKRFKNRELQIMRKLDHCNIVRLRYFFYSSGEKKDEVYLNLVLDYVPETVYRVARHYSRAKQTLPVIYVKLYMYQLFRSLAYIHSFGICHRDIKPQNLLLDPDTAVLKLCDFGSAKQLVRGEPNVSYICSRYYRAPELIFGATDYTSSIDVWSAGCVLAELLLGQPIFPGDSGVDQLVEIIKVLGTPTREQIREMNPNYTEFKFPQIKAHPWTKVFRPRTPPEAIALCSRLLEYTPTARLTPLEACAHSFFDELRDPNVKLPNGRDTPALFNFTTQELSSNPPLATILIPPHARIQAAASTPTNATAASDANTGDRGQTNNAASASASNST
RAF proto-oncogene serine/threonine-protein kinase (Homo sapiens), sequence (P04049 whole entry): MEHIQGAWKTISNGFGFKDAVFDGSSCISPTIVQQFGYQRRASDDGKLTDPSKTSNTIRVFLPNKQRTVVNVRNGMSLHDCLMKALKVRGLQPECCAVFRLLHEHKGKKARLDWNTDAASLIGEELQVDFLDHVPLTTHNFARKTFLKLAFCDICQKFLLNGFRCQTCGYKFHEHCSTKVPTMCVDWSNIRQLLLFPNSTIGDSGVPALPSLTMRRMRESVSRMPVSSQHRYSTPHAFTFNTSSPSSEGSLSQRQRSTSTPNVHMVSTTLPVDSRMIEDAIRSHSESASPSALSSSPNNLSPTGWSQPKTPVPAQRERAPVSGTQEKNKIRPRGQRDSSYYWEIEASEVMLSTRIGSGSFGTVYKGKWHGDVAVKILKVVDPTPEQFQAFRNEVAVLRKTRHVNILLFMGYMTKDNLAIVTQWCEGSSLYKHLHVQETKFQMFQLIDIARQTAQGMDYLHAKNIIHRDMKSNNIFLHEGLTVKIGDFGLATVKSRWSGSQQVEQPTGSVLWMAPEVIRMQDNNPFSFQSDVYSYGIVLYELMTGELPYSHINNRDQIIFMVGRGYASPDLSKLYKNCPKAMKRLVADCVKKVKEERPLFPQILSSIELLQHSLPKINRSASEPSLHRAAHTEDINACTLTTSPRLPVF
Interleukin-1 receptor-associated kinase 1 (Homo sapiens), sequence (P51617 whole entry, looked up): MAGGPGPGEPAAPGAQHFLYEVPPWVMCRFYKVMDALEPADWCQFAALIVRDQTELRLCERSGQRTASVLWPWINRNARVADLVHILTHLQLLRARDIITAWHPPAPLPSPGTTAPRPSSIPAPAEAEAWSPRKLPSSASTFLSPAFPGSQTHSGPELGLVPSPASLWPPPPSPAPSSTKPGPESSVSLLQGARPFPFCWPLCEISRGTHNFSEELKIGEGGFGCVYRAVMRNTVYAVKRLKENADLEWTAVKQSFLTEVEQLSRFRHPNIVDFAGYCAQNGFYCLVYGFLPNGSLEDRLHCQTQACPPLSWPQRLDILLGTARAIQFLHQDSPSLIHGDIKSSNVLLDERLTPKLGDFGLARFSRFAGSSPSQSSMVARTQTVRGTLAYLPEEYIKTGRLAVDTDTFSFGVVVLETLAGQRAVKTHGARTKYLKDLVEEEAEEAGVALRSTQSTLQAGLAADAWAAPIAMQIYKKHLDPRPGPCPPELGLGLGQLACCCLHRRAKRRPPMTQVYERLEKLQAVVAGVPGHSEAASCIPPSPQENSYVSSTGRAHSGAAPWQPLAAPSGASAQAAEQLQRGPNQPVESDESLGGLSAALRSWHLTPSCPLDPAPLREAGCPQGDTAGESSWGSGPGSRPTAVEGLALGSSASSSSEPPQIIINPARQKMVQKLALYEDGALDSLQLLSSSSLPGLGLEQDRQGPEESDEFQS
Serine/threonine-protein kinase Nek4 (Homo sapiens), sequence (P51957 whole entry, looked up): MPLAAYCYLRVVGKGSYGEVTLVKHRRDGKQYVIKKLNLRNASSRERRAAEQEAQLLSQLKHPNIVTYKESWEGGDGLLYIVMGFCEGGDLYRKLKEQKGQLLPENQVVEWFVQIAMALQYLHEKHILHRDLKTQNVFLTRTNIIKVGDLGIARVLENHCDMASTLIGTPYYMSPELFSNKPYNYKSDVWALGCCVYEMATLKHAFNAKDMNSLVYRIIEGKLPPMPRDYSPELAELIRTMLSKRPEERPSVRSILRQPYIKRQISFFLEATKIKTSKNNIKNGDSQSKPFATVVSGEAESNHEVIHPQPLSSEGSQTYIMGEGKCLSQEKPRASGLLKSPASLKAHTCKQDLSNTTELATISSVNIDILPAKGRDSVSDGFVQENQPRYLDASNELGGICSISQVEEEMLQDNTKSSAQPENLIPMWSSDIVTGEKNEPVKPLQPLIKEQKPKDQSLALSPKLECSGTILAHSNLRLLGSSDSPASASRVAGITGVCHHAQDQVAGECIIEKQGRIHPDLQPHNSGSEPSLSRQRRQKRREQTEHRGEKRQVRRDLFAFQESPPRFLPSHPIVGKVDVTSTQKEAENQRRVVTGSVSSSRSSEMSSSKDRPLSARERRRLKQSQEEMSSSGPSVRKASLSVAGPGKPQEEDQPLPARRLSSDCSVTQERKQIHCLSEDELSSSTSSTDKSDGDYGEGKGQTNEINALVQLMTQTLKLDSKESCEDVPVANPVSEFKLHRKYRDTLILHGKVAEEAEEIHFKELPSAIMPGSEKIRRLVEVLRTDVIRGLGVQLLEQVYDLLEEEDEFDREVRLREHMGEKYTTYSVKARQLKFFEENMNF

- fold change (FC) [1]: 0.2
SMILES: CNC(=O)c1ccccc1Oc1nc(Nc2cc(OC)c(OC)c(OC)c2)ncc1Br

- fold change (FC) [2]: 0.39
- fold change (FC) [3]: 0.09
- fold change (FC) [4]: 0.13
- fold change (FC) [5]: 0.18
- inhibition [6]: 6%
SMILES: CC(C)[C@H](NC(=O)c1cc(-c2cnn3cc(-c4ccc(OCCN5CCCCC5)cc4)cnc23)cs1)C(F)(F)F

- inhibition [7]: 8%
- inhibition [8]: 7%
SMILES: O=C(N[C@@H](C1CC1)C(F)(F)F)c1cc(-c2cnn3cc(-c4ccc(F)cc4)cnc23)cs1
